Results published in patent US12421225B2, “Heteroaromatic amide derivative and medicament containing the same” (KAKEN PHARMACEUTICAL CO., LTD., priority 2018, dated 2025).

Columns and labels:
human Nav1.5 = human Nav1.5 (Homo sapiens (Human), UniProt Q14524); test: Human Nav1.5 inhibitory activity evaluation (automated patch clamp QPatch16X, HEK293 cells stably expressing human Nav1.5); assay type: cell-based; conditions: human Nav1.5, automated patch clamp
How it was run: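 IC50 derived from concentration-response of inward current at the 20th of 20 action-potential-mimicking pulses (holding −80 mV, leak corrected with −100 mV step). HEK293 cells stably expressing human Nav1.5, room temperature, extracellular pH 7.4, intracellular CsF-based pH 7.3, 0.1% DMSO.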

human Nav1.7 = human Nav1.7 (Homo sapiens (Human), UniProt Q15858); test: Human Nav1.7 inhibitory activity evaluation (automated patch clamp QPatch16X, HEK293A cells stably expressing human Nav1.7 and human Navβ1); assay type: cell-based; conditions: human Nav1.7, automated patch clamp
How it was run: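 IC50 calculated from the concentration-response of inward current evoked by the second −10 mV, 50 ms depolarisation, which follows a 15 s conditioning step at roughly 30-40% inactivation and a 100 ms −120 mV interval. Cells: HEK293A expressing human Nav1.7/Navβ1, automated patch clamp, room temperature, 0.1% DMSO final.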

human Nav1.7, sequence (Q15858 whole entry): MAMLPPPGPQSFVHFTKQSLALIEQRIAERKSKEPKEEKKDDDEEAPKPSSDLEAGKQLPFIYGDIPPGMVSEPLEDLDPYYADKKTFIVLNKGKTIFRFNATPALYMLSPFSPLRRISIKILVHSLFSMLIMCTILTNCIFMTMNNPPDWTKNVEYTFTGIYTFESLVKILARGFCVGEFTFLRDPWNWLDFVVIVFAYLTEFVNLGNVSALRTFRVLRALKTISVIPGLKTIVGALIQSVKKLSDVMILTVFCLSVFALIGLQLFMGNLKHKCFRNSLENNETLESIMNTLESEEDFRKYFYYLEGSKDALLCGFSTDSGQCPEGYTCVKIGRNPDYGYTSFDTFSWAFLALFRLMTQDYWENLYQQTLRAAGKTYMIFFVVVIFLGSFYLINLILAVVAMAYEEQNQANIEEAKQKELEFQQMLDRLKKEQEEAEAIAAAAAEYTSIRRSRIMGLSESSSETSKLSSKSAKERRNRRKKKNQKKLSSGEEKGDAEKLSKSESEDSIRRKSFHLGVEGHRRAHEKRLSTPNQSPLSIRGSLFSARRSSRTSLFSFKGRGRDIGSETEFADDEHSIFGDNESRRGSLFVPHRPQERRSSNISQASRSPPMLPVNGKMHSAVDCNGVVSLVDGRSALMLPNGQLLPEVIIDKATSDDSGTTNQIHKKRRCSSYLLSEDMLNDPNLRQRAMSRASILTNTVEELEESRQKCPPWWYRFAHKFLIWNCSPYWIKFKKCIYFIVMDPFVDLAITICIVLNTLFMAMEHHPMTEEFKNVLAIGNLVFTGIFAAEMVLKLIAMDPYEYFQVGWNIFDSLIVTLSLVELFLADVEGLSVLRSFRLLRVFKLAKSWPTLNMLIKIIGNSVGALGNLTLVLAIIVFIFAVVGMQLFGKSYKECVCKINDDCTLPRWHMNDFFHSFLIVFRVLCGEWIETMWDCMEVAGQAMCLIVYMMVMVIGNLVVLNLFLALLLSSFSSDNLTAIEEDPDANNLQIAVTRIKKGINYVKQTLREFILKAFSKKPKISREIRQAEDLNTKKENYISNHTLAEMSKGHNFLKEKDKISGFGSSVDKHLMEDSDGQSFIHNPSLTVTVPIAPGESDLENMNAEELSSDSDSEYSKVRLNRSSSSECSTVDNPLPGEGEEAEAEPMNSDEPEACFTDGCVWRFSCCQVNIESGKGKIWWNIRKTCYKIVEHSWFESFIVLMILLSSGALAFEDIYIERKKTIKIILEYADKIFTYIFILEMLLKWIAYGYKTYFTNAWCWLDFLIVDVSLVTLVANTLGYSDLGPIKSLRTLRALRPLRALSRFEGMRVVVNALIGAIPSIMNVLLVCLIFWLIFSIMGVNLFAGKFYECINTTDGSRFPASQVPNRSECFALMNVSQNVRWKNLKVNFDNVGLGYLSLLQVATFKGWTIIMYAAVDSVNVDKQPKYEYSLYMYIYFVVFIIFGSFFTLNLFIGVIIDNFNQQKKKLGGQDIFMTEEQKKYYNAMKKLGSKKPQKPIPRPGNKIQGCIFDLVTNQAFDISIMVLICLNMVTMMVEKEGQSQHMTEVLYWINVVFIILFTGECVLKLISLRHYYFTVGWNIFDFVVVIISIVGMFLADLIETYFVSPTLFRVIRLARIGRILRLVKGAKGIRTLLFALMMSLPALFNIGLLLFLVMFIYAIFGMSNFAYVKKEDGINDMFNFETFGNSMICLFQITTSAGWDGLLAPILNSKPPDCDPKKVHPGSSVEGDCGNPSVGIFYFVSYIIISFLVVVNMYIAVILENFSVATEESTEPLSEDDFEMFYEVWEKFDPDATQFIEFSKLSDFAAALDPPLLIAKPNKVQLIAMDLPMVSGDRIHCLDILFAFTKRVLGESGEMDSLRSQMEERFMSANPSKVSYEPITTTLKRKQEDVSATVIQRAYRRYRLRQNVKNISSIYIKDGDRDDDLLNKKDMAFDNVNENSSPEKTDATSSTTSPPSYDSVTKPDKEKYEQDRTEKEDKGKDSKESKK
human Nav1.7, sequence (Q07699 19-218 partner): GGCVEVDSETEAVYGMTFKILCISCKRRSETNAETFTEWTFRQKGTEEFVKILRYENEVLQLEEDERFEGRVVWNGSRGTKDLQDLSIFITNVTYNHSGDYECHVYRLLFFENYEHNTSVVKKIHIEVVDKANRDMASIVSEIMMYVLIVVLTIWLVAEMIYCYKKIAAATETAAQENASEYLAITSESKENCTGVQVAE
human Nav1.5, sequence (Q14524 whole entry): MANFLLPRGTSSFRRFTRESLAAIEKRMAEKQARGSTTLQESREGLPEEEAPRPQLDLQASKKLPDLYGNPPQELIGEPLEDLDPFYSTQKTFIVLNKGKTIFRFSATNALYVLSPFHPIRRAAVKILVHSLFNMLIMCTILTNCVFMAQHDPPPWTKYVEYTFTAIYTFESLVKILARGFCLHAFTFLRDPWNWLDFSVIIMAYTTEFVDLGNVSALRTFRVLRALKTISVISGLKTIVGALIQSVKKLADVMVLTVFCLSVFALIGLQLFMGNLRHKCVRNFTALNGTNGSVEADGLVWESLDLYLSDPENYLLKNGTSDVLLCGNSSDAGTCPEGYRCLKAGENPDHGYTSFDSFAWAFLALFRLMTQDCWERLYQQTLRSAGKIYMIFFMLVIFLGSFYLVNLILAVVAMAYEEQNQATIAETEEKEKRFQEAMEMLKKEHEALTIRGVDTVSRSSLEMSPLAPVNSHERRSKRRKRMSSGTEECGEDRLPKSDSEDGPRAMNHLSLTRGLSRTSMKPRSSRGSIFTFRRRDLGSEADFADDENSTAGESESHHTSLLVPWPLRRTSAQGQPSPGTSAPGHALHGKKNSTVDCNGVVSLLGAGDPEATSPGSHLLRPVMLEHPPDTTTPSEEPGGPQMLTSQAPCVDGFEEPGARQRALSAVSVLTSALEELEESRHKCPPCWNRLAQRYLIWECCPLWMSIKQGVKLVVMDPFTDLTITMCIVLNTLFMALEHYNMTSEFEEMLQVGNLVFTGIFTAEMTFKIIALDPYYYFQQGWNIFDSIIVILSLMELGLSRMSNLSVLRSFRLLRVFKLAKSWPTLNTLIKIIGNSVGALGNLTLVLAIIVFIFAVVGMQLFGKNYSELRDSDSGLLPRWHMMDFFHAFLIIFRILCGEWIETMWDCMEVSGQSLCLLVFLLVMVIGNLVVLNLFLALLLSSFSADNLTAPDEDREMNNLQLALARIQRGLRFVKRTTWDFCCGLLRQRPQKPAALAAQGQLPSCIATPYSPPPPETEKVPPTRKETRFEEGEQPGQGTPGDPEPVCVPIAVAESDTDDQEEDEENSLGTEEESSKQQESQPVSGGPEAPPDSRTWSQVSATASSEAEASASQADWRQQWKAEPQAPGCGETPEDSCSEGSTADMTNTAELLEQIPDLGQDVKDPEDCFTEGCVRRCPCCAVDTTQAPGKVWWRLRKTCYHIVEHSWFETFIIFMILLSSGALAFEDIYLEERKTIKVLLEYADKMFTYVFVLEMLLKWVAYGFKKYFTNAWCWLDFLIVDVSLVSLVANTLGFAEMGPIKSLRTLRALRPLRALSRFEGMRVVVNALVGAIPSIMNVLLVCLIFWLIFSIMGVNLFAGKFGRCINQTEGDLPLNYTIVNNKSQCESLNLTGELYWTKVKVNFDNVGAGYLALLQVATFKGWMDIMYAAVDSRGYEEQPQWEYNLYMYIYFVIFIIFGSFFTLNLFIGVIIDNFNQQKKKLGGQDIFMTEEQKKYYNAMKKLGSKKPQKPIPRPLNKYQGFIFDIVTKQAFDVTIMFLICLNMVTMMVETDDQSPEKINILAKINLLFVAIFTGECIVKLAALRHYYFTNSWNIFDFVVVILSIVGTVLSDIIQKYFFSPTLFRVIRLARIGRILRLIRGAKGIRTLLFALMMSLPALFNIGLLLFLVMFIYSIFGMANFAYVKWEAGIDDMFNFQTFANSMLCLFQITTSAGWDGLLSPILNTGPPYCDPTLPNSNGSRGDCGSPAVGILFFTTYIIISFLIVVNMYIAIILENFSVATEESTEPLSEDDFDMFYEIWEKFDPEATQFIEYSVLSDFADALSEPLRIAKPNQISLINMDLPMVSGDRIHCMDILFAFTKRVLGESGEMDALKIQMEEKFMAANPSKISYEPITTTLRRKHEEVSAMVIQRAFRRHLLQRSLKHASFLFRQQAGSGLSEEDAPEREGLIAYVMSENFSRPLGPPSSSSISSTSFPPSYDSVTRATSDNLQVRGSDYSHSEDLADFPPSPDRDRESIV

SMILES | IC50 (human Nav1.7) [nM] | IC50 (human Nav1.5) [nM]
O=C(N[C@H]1COc2ccc(COCC(F)(F)F)cc2C1)c1cc2n(n1)CC(COCC1CC1)O2 (some centres unmarked) [Example 185] | < 1000 | ≥ 3000
O=C(N[C@H]1COc2ccc(COCC(F)(F)F)cc2C1)c1cc2n(n1)CC(COCC(F)(F)F)O2 (stereo partly drawn) [Example 187, 2-((2,2,2-trifluoroethoxy)methyl)-N—((R)-6-((2,2,2-trifluoroethoxy)methyl)chroman-3-yl)-2,3-dihydropyrazolo[5,1-b]oxazole-6-carboxamide] | < 1000 | ≥ 3000
O=C(N[C@H]1COc2ccc(CCOC(F)F)cc2C1)c1cc2n(n1)CC(COCC(F)(F)F)O2 (some centres unmarked) [Example 189] | < 1000 | ≥ 3000
O=C(N[C@H]1COc2ccc(COCC(F)(F)F)cc2C1)c1cc2n(n1)CC(COC(F)(F)F)O2 (some centres unmarked) [Example 195] | < 1000 | ≥ 3000
O=C(N[C@H]1COc2ccc(CC(F)F)cc2C1)c1cc2n(n1)CC(COC(F)(F)F)O2 (some centres unmarked) [Example 197] | < 1000 | ≥ 3000
N#Cc1ccc2c(c1)C[C@@H](NC(=O)c1cc3n(n1)CC(CSCC(F)(F)F)O3)CO2 (some centres unmarked) [Example 199] | < 10000 | ≥ 3000
N#Cc1ccc2c(c1)C[C@@H](NC(=O)c1cc3n(n1)CC(CCOCC1CC1)O3)CO2 (stereo partly drawn) [Example 201, N—((R)-6-cyanochroman-3-yl)-2-(2-(cyclopropylmethoxy)ethyl)-2,3-dihydropyrazolo[5,1-b]oxazole-6-carboxamide] | < 1000 | 1000 to 3000
Cn1ccc(-c2ccc3c(c2)C[C@@H](NC(=O)c2cc4n(n2)CC(CCOCC(F)(F)F)O4)CO3)n1 (some centres unmarked) [Example 205] | < 10000 | ≥ 3000
N#Cc1ccc2c(c1)C[C@@H](NC(=O)c1cc3n(n1)CC(CCOC(F)(F)F)O3)CO2 (some centres unmarked) [Example 208] | < 1000 | < 1000
Cn1ccc(-c2ccc3c(c2)C[C@@H](NC(=O)c2cc4n(n2)CC(CCOC(F)(F)F)O4)CO3)n1 (some centres unmarked) [Example 212] | < 1000 | ≥ 3000
O=C(N[C@H]1COc2ccc(COCC(F)(F)F)cc2C1)c1cc2n(n1)CC(CCOC(F)F)O2 (some centres unmarked) [Example 214] | < 1000 | 1000 to 3000
O=C(N[C@H]1COc2ccc(CC(F)F)cc2C1)c1cc2n(n1)CC(CCOC(F)F)O2 (some centres unmarked) [Example 218] | < 1000 | ≥ 3000
Cn1cc(-c2ccc3c(c2)C[C@@H](NC(=O)c2cc4n(n2)CC(CCOC(F)F)O4)CO3)cn1 (some centres unmarked) [Example 220] | < 10000 | 1000 to 3000
O=C(N[C@H]1COc2ccc(-c3cnccn3)cc2C1)c1cc2n(n1)CC(CCOC(F)F)O2 (some centres unmarked) [Example 222] | < 1000 | ≥ 3000
O=C(N[C@H]1COc2ccc(Cl)cc2C1)c1cc2n(n1)CC(CCNCC(F)(F)F)O2 (some centres unmarked) [Example 225] | < 1000 | 1000 to 3000
Cc1ccc2c(c1)C[C@@H](NC(=O)c1cc3n(n1)CC(CCNCC(F)(F)F)O3)CO2 (some centres unmarked) [Example 227] | < 1000 | 1000 to 3000
O=C(N[C@H]1COc2ccc(C(F)(F)F)cc2C1)c1cc2n(n1)CC(CCNCC(F)(F)F)O2 (some centres unmarked) [Example 229] | < 1000 | 1000 to 3000
O=C(N[C@H]1COc2ccc(COCC(F)(F)F)cc2C1)c1cc2n(n1)CC(CCNCC(F)(F)F)O2 (some centres unmarked) [Example 231] | < 1000 | ≥ 3000

SMILES | IC50 (human Nav1.7) [nM] | IC50 (human Nav1.5) [nM]
O=C(N[C@H]1COc2ccc(Cl)cc2C1)c1cc2n(n1)CC(CCN1CC(F)(F)C1)O2 (some centres unmarked) [Example 233] | < 1000 | < 1000
N#Cc1ccc2c(c1)C[C@@H](NC(=O)c1cc3n(n1)CC(CCSCC(F)(F)F)O3)CO2 (some centres unmarked) [Example 243] | < 1000 | ≥ 3000
N#Cc1ccc2c(c1)C[C@@H](NC(=O)c1cc3n(n1)CC(CCCOCC(F)(F)F)O3)CO2 (some centres unmarked) [Example 245] | < 1000 | 1000 to 3000
N#Cc1ccc2c(c1)C[C@@H](NC(=O)c1cc3n(n1)CCCC(c1ccccc1)O3)CO2 (some centres unmarked) [Example 251] | < 1000 | ≥ 3000
N#Cc1ccc2c(c1)C[C@@H](NC(=O)c1cc3n(n1)CCC(OC(F)(F)F)CO3)CO2 (stereo partly drawn) [Example 252, N—((R)-6-cyanochroman-3-yl)-6-(trifluoromethoxy)-5,6,7,8-tetrahydropyrazolo[5,1-b][1,3]oxazepine-2-carboxamide] | < 1000 | ≥ 3000
O=C(N[C@H]1COc2ccc(C(F)(F)F)cc2C1)c1nn2c(c1-c1ccn[nH]1)OCCCC2 [Example 258, (R)-3-(1H-pyrazol-5-yl)-N-(6-(trifluoromethyl)chroman-3-yl)-5,6,7,8-tetrahydropyrazolo[5,1-b][1,3]oxazepine-2-carboxamide] | < 1000 | < 1000
O=C(N[C@H]1COc2ccc(Cl)cc2C1)c1cc2n(n1)CCN(CCC(F)(F)F)C2 [Example 261] | < 1000 | < 1000
O=C(N[C@H]1COc2cccc(Cl)c2C1)c1cc2n(n1)CCN(CCC(F)(F)F)C2 [Example 262] | < 10000 | ≥ 3000
O=C(N[C@H]1COc2ccc(Cl)cc2C1)c1cc2n(n1)CCN(CCC1CC1)C2 [Example 263] | < 1000 | 1000 to 3000
O=C(N[C@H]1COc2ccc(C(F)(F)F)cc2C1)c1cc2n(n1)CCN(CCOC1CCC1)C2 [Example 265] | < 1000 | ≥ 3000
O=C(N[C@H]1COc2ccc(COCC(F)(F)F)cc2C1)c1cc2n(n1)CCN(CCOC1CCC1)C2 [Example 266] | < 1000 | ≥ 3000
O=C(N[C@H]1COc2ccc(C(F)(F)F)cc2C1)c1nn2c(c1-c1ccccn1)CN(CC(F)(F)F)CC2 [Example 267] | < 10000 | < 1000
N#Cc1ccc2c(c1)C[C@@H](NC(=O)c1cc3n(n1)CCN(Cc1ccc(F)cc1)C3)CO2 [Example 268, (R)—N-(6-cyanochroman-3-yl)-5-(4-fluorobenzyl)-4,5,6,7-tetrahydropyrazolo[1,5-a]pyrazine-2-carboxamide] | < 1000 | ≥ 3000
CC(C)(C)OCCN1CCn2nc(C(=O)N[C@H]3COc4ccc(C(F)F)cc4C3)cc2C1 [Example 272] | < 10000 | ≥ 3000
COc1cccc(CN2CCn3nc(C(=O)N[C@H]4COc5ccc(Cl)cc5C4)cc3C2)n1 [Example 273] | < 1000 | ≥ 3000
O=C(N[C@H]1COc2ccccc2C1)c1nn2c(c1-c1ccccc1)CN(CC(F)(F)F)CC2 [Example 275] | < 1000 | 1000 to 3000
O=C(N[C@H]1COc2ccccc2C1)c1cc2n(n1)CCC(c1ccccc1)N2 (some centres unmarked) [Example 287] | < 10000 | ≥ 3000

Further lines, with some results ahead:

IC50 (human Nav1.7) [nM] | SMILES | IC50 (human Nav1.5) [nM]
< 10000 | O=C(N[C@H]1COc2ccccc2C1)c1cc2n(n1)CCN(C(=O)Cc1ccccc1)C2 [Example 276] | ≥ 3000
< 10000 | O=C(N[C@H]1COc2ccccc2C1)c1cc2n(n1)CCN(S(=O)(=O)c1cccc(C(F)(F)F)c1)C2 [Example 277] | ≥ 3000
< 1000 | N#Cc1ccc2c(c1)C[C@@H](NC(=O)c1cc3n(n1)CCN(c1ccc(F)cc1)C3)CO2 [Example 278] | 1000 to 3000
< 1000 | O=C(N[C@H]1COc2ccc(-c3cccnc3)cc2C1)c1cc2n(n1)CCN(c1ccc(F)cc1)C2 [Example 279] | ≥ 3000
< 10000 | N#Cc1ccc(N2CCn3nc(C(=O)N[C@H]4COc5ccc(Cl)cc5C4)cc3C2)nc1 [Example 280] | < 1000
< 10000 | CC(C)(C)N1CCn2nc(C(=O)N[C@H]3COc4ccc(Cl)cc4C3)cc2C1 [Example 281] | ≥ 3000
< 1000 | N#Cc1ccc2c(c1)C[C@@H](NC(=O)c1cc3n(n1)CCN(C1(c4ccc(F)cc4)CC1)C3)CO2 [Example 282] | 1000 to 3000
< 1000 | O=C(N[C@H]1COc2ccc(Cl)cc2C1)c1cc2n(n1)CCN(C1(C(F)(F)F)CC1)C2 [Example 283] | < 1000
< 1000 | CC(C)(c1ccccn1)N1CCn2nc(C(=O)N[C@H]3COc4ccc(Cl)cc4C3)cc2C1 [Example 285] | 1000 to 3000
< 10000 | O=C(NC1COc2cccc(-c3ccccc3)c2C1)c1cn2c(n1)CCC(C(F)(F)F)C2 (centres unmarked) [Example 291] | ≥ 3000
< 1000 | O=C(NC1COc2cccc(C(F)F)c2C1)c1cn2c(n1)CCC(C(F)(F)F)C2 (centres unmarked) [Example 292] | 1000 to 3000
< 10000 | N#Cc1cccc2c1CC(NC(=O)c1cn3c(n1)CCC(C(F)(F)F)C3)CO2 (centres unmarked) [Example 294] | ≥ 3000
< 1000 | CCc1ccc2c(c1)CC(NC(=O)c1cn3c(n1)CCC(C(F)(F)F)C3)CO2 (centres unmarked) [Example 295] | ≥ 3000
< 1000 | O=C(c1cn2c(n1)CCC(C(F)(F)F)C2)N(Cc1ccccc1)C1COc2ccc(Br)cc2C1 (centres unmarked) [Example 298] | 1000 to 3000
< 1000 | COc1cccc(-c2c(C(=O)N[C@H]3COc4ccccc4C3)nc3n2CCCC3)n1 [Example 303] | 1000 to 3000
< 1000 | O=C(N[C@H]1COc2ccc(C(F)(F)F)cc2C1)c1nc2n(c1-c1ccccn1)CCCC2 [Example 305] | 1000 to 3000
< 10000 | O=C(c1cn2c(n1)CCC(c1cccc(N3CCOCC3)n1)C2)N1CCC(c2ccccc2)C1 (centres unmarked) [Example 307] | 1000 to 3000
< 10000 | CCNc1cccc(C2CCc3nc(C(=O)N4CCC(c5ccccc5)C4)cn3C2)n1 (centres unmarked) [Example 308] | 1000 to 3000
< 10000 | C[C@@H]1CN(c2cccc(C3CCc4nc(C(=O)N5CCC(c6ccccc6)C5)cn4C3)n2)C[C@H](C)O1 (some centres unmarked) [Example 311] | ≥ 3000
< 10000 | O=C(c1cn2c(n1)CCC(c1cccc(OC3COC3)n1)C2)N1CCC(c2ccccc2)C1 (centres unmarked) [Example 313] | ≥ 3000
